Assay results reported in ChEMBL document CHEMBL4152299, “Synthesis, crystal structure and antimicrobial potential of some fluorinated chalcone-1,2,3-triazole conjugates” (2018).
≈ marks a conversion by molar mass, not a printed value.

Assays:
Format in all cases: functional
[1] = tested on: Escherichia coli; assay: Antibacterial activity against Escherichia coli MTCC 16521 after 24 hrs by serial dilution method; settings: MTCC 16521, 24 h
[2] = tested on: Bacillus subtilis; assay: Antibacterial activity against Bacillus subtilis MTCC 441 after 24 hrs by serial dilution method; settings: MTCC 441, 24 h
[3] = tested on: Staphylococcus epidermidis; assay: Antibacterial activity against Staphylococcus epidermidis MTCC 6880 after 24 hrs by serial dilution method; settings: MTCC 6880, 24 h
[4] = tested on: Pseudomonas aeruginosa; assay: Antibacterial activity against Pseudomonas aeruginosa MTCC 424 after 24 hrs by serial dilution method; settings: MTCC 424, 24 h
[5] = tested on: Candida albicans; assay: Antifungal activity against Candida albicans MTCC 227 after 48 hrs by serial dilution method; settings: MTCC 227, 48 h
[6] = tested on: Aspergillus niger; assay: Antifungal activity against Aspergillus niger MTCC 8189 after 120 hrs by serial dilution method; settings: MTCC 8189, 120 h

O=C(/C=C/c1c(OCc2cn(Cc3ccc(F)cc3)nn2)ccc2ccccc12)c1ccc([N+](=O)[O-])cc1
MIC [1]: 3.2 µM (≈ 1.63 µg/mL) | MIC [2]: 6.3 µM (≈ 3.2 µg/mL) | MIC [3]: 3.2 µM (≈ 1.63 µg/mL) | MIC [4]: 6.3 µM (≈ 3.2 µg/mL) | MIC [5]: 3.2 µM (≈ 1.63 µg/mL) | MIC [6]: 3.2 µM (≈ 1.63 µg/mL)

COc1ccc(C(=O)/C=C/c2c(OCc3cn(Cc4cccc(F)c4)nn3)ccc3ccccc23)cc1
MIC [1]: 12.6 µM (≈ 6.22 µg/mL) | MIC [2]: 25.3 µM (≈ 12.5 µg/mL) | MIC [3]: 25.3 µM (≈ 12.5 µg/mL) | MIC [4]: 25.3 µM (≈ 12.5 µg/mL) | MIC [5]: 12.6 µM (≈ 6.22 µg/mL) | MIC [6]: 12.6 µM (≈ 6.22 µg/mL)

COc1ccc(C(=O)/C=C/c2c(OCc3cn(-c4ccc(F)cc4)nn3)ccc3ccccc23)cc1
MIC [1]: 13 µM (≈ 6.23 µg/mL) | MIC [2]: 26.1 µM (≈ 12.5 µg/mL) | MIC [3]: 52.2 µM (≈ 25 µg/mL) | MIC [4]: 26.1 µM (≈ 12.5 µg/mL) | MIC [5]: 13 µM (≈ 6.23 µg/mL) | MIC [6]: 52.2 µM (≈ 25 µg/mL)

C#CCOc1ccc2ccccc2c1/C=C/C(=O)c1ccc(OC)cc1
MIC [1]: 73.1 µM (≈ 25 µg/mL) | MIC [2]: 73.1 µM (≈ 25 µg/mL) | MIC [3]: 146 µM (≈ 50.1 µg/mL) | MIC [4]: 73.1 µM (≈ 25 µg/mL) | MIC [5]: 73.1 µM (≈ 25 µg/mL) | MIC [6]: 73.1 µM (≈ 25 µg/mL)

O=C(/C=C/c1c(OCc2cn(Cc3cccc(F)c3)nn2)ccc2ccccc12)c1ccc(Br)cc1
MIC [1]: 11.6 µM (≈ 6.29 µg/mL) | MIC [2]: 11.6 µM (≈ 6.29 µg/mL) | MIC [3]: 23.2 µM (≈ 12.6 µg/mL) | MIC [4]: 23.2 µM (≈ 12.6 µg/mL) | MIC [5]: 23.2 µM (≈ 12.6 µg/mL) | MIC [6]: 23.2 µM (≈ 12.6 µg/mL)

COc1ccc(C(=O)/C=C/c2c(OCc3cn(Cc4ccccc4F)nn3)ccc3ccccc23)cc1
MIC [1]: 6.3 µM (≈ 3.11 µg/mL) | MIC [2]: 25.3 µM (≈ 12.5 µg/mL) | MIC [3]: 25.3 µM (≈ 12.5 µg/mL) | MIC [4]: 12.6 µM (≈ 6.22 µg/mL) | MIC [5]: 6.3 µM (≈ 3.11 µg/mL) | MIC [6]: 25.3 µM (≈ 12.5 µg/mL)

O=C(/C=C/c1c(OCc2cn(-c3ccc(F)cc3)nn2)ccc2ccccc12)c1ccc([N+](=O)[O-])cc1
MIC [1]: 25.3 µM (≈ 12.5 µg/mL) | MIC [2]: 12.6 µM (≈ 6.23 µg/mL) | MIC [3]: 25.3 µM (≈ 12.5 µg/mL) | MIC [4]: 25.3 µM (≈ 12.5 µg/mL) | MIC [5]: 12.6 µM (≈ 6.23 µg/mL) | MIC [6]: 12.6 µM (≈ 6.23 µg/mL)

O=C(/C=C/c1c(OCc2cn(Cc3ccccc3)nn2)ccc2ccccc12)c1ccc(Br)cc1
MIC [1]: 11.9 µM (≈ 6.24 µg/mL) | MIC [2]: 23.9 µM (≈ 12.5 µg/mL) | MIC [3]: 11.9 µM (≈ 6.24 µg/mL) | MIC [4]: 11.9 µM (≈ 6.24 µg/mL) | MIC [5]: 11.9 µM (≈ 6.24 µg/mL) | MIC [6]: 11.9 µM (≈ 6.24 µg/mL)

O=C(/C=C/c1c(OCc2cn(-c3cccc(C(F)(F)F)c3)nn2)ccc2ccccc12)c1ccc(Br)cc1
MIC [1]: 10.8 µM (≈ 6.25 µg/mL) | MIC [2]: 21.7 µM (≈ 12.6 µg/mL) | MIC [3]: 21.7 µM (≈ 12.6 µg/mL) | MIC [4]: 10.8 µM (≈ 6.25 µg/mL) | MIC [5]: 21.7 µM (≈ 12.6 µg/mL) | MIC [6]: 10.8 µM (≈ 6.25 µg/mL)

C#CCOc1ccc2ccccc2c1/C=C/C(=O)c1ccc(Br)cc1
MIC [1]: 63.7 µM (≈ 24.9 µg/mL) | MIC [2]: 63.7 µM (≈ 24.9 µg/mL) | MIC [3]: 127 µM (≈ 49.8 µg/mL) | MIC [4]: 63.7 µM (≈ 24.9 µg/mL) | MIC [5]: 63.7 µM (≈ 24.9 µg/mL) | MIC [6]: 127 µM (≈ 49.8 µg/mL)

O=C(/C=C/c1c(OCc2cn(Cc3cccc(F)c3)nn2)ccc2ccccc12)c1ccc([N+](=O)[O-])cc1
MIC [1]: 6.3 µM (≈ 3.2 µg/mL) | MIC [2]: 12.6 µM (≈ 6.41 µg/mL) | MIC [3]: 6.3 µM (≈ 3.2 µg/mL) | MIC [4]: 6.3 µM (≈ 3.2 µg/mL) | MIC [5]: 6.3 µM (≈ 3.2 µg/mL) | MIC [6]: 6.3 µM (≈ 3.2 µg/mL)

COc1ccc(C(=O)/C=C/c2c(OCc3cn(Cc4ccc(F)cc4)nn3)ccc3ccccc23)cc1
MIC [1]: 3.2 µM (≈ 1.58 µg/mL) | MIC [2]: 25.3 µM (≈ 12.5 µg/mL) | MIC [3]: 25.3 µM (≈ 12.5 µg/mL) | MIC [4]: 25.3 µM (≈ 12.5 µg/mL) | MIC [5]: 6.3 µM (≈ 3.11 µg/mL) | MIC [6]: 12.6 µM (≈ 6.22 µg/mL)

O=C(/C=C/c1c(OCc2cn(Cc3ccccc3F)nn2)ccc2ccccc12)c1ccc([N+](=O)[O-])cc1
MIC [1]: 6.3 µM (≈ 3.2 µg/mL) | MIC [2]: 6.3 µM (≈ 3.2 µg/mL) | MIC [3]: 6.3 µM (≈ 3.2 µg/mL) | MIC [4]: 24.8 µM (≈ 12.6 µg/mL) | MIC [5]: 6.3 µM (≈ 3.2 µg/mL) | MIC [6]: 6.3 µM (≈ 3.2 µg/mL)

O=C(/C=C/c1c(OCc2cn(Cc3ccc(F)cc3)nn2)ccc2ccccc12)c1ccc(Br)cc1
MIC [1]: 5.8 µM (≈ 3.15 µg/mL) | MIC [2]: 5.8 µM (≈ 3.15 µg/mL) | MIC [3]: 5.8 µM (≈ 3.15 µg/mL) | MIC [4]: 11.6 µM (≈ 6.29 µg/mL) | MIC [5]: 5.8 µM (≈ 3.15 µg/mL) | MIC [6]: 5.8 µM (≈ 3.15 µg/mL)

COc1ccc(C(=O)/C=C/c2c(OCc3cn(-c4cccc(C(F)(F)F)c4)nn3)ccc3ccccc23)cc1
MIC [1]: 11.8 µM (≈ 6.25 µg/mL) | MIC [2]: 23.6 µM (≈ 12.5 µg/mL) | MIC [3]: 23.6 µM (≈ 12.5 µg/mL) | MIC [4]: 23.6 µM (≈ 12.5 µg/mL) | MIC [5]: 11.8 µM (≈ 6.25 µg/mL) | MIC [6]: 11.8 µM (≈ 6.25 µg/mL)

O=C(/C=C/c1c(OCc2cn(Cc3ccccc3F)nn2)ccc2ccccc12)c1ccc(Br)cc1
MIC [1]: 11.6 µM (≈ 6.29 µg/mL) | MIC [2]: 11.6 µM (≈ 6.29 µg/mL) | MIC [3]: 11.6 µM (≈ 6.29 µg/mL) | MIC [4]: 23.2 µM (≈ 12.6 µg/mL) | MIC [5]: 23.2 µM (≈ 12.6 µg/mL) | MIC [6]: 23.2 µM (≈ 12.6 µg/mL)

COc1ccc(C(=O)/C=C/c2c(OCc3cn(Cc4ccccc4)nn3)ccc3ccccc23)cc1
MIC [1]: 26.3 µM (≈ 12.5 µg/mL) | MIC [2]: 26.3 µM (≈ 12.5 µg/mL) | MIC [3]: 52.6 µM (≈ 25 µg/mL) | MIC [4]: 26.3 µM (≈ 12.5 µg/mL) | MIC [5]: 52.6 µM (≈ 25 µg/mL) | MIC [6]: 52.6 µM (≈ 25 µg/mL)

O=C(/C=C/c1c(OCc2cn(-c3cccc(C(F)(F)F)c3)nn2)ccc2ccccc12)c1ccc([N+](=O)[O-])cc1
MIC [1]: 23 µM (≈ 12.5 µg/mL) | MIC [2]: 45.9 µM (≈ 25 µg/mL) | MIC [3]: 23 µM (≈ 12.5 µg/mL) | MIC [4]: 23 µM (≈ 12.5 µg/mL) | MIC [5]: 11.5 µM (≈ 6.26 µg/mL) | MIC [6]: 45.9 µM (≈ 25 µg/mL)

O=C(/C=C/c1c(OCc2cn(Cc3ccccc3)nn2)ccc2ccccc12)c1ccc([N+](=O)[O-])cc1
MIC [1]: 12.8 µM (≈ 6.28 µg/mL) | MIC [2]: 6.3 µM (≈ 3.09 µg/mL) | MIC [3]: 6.3 µM (≈ 3.09 µg/mL) | MIC [4]: 12.8 µM (≈ 6.28 µg/mL) | MIC [5]: 12.8 µM (≈ 6.28 µg/mL) | MIC [6]: 6.3 µM (≈ 3.09 µg/mL)

O=C(/C=C/c1c(OCc2cn(-c3ccc(F)cc3)nn2)ccc2ccccc12)c1ccc(Br)cc1
MIC [1]: 23.7 µM (≈ 12.5 µg/mL) | MIC [2]: 47.4 µM (≈ 25 µg/mL) | MIC [3]: 47.4 µM (≈ 25 µg/mL) | MIC [4]: 47.4 µM (≈ 25 µg/mL) | MIC [5]: 47.4 µM (≈ 25 µg/mL) | MIC [6]: 23.7 µM (≈ 12.5 µg/mL)

C#CCOc1ccc2ccccc2c1/C=C/C(=O)c1ccc([N+](=O)[O-])cc1
MIC [1]: 70 µM (≈ 25 µg/mL) | MIC [2]: 140 µM (≈ 50 µg/mL) | MIC [3]: 70 µM (≈ 25 µg/mL) | MIC [4]: 70 µM (≈ 25 µg/mL) | MIC [5]: 70 µM (≈ 25 µg/mL) | MIC [6]: 70 µM (≈ 25 µg/mL)

O=C(O)c1cn(C2CC2)c2cc(N3CCNCC3)c(F)cc2c1=O [CIPROFLOXACIN]
MIC [1]: 4.7 µM (≈ 1.56 µg/mL) | MIC [2]: 4.7 µM (≈ 1.56 µg/mL) | MIC [3]: 4.7 µM (≈ 1.56 µg/mL) | MIC [4]: 4.7 µM (≈ 1.56 µg/mL)

OC(Cn1cncn1)(Cn1cncn1)c1ccc(F)cc1F [FLUCONAZOLE]
MIC [5]: 10.2 µM (≈ 3.12 µg/mL) | MIC [6]: 5.1 µM (≈ 1.56 µg/mL)
